{
  "source": "patent US5844001A",
  "about": "“Combination platinum chemotherapeutic/antiestrogen therapy for human cancers” (Research Development Foundation, priority 1994, dated 1998)",
  "key": {"melanoma [1]": {"test_system": "melanoma", "experiment": "Clinical trial: tumor response to DDP alone, then TAM/DDP after DDP resistance", "format": "in vivo, human (patients)", "text": "A complete response was defined as the complete disappearance of all evidence of disease for at least 4 weeks. A partial response was a decrease in the mean diameter of the target lesion by 50% or more lasting at least 4 weeks. A mixed response was a decrease in the diameter of some target lesions of 50% or more while others remained stable or increased in size. A stable disease was defined as a <50% decrease or <25% increase in the size of target lesions for at least 2 months without the growth or appearance of other lesions. A progressive disease was defined as an increase in the size of target lesions by 25% or more.\nPatients were retreated every 3 weeks. […] Subsequent patients received an ondansetron-based regimen."}, "[2]": {"test_system": "UM-SCC-10B head and neck carcinoma cells", "experiment": "Development of cisplatin resistance with or without tamoxifen, UM-SCC-10B (clonogenic assay)", "format": "cell-based, human", "settings": "for effect on development of cisplatin resistance: tamoxifen present during selection, in words", "protocol": "(§1) The UM-SCC-10B and UM-SCC-5 cell lines were derived from human squamous cell carcinomas of the in head and neck region. Cells were cultured at 37° C. in humidified 5% CO2 in 150 cm^2 flasks (Corning, Corning, N.Y.) with RPMI 1640 medium (Mediatech Inc., Herndon, Va.) containing 10% fetal bovine serum (Gemini Bioproducts Inc., Calabasas, Calif.), 2 mM L-glutamine, 100 units/ml of penicillin and 100 μg/ml of streptomycin sulfate. The sensitivity of the UM-SCC-10B and UM-SCC-5 cell lines and their cDDP-resistant variants to cDDP, TAM and the combination of both agents was tested by colony forming assay. Single-cell suspension were plated into 60 mm tissue culture dishes (Corning) at 300 cells per dish. Following drug exposure, the cultures were washed twice with PBS to remove cDDP, 5 ml of fresh medium was added, and they were incubated for 13-15 days to allow formation of colonies. Colonies were fixed with methanol, stained with Giemsa stain for 60 minutes, and counted manually.\n(§2) Cells were cultured in drug-free medium for two weeks prior to being tested for drug sensitivity."}, "UM-SCC-5 cells": {"test_system": "UM-SCC-5 cells", "experiment": "Colony forming assay, parental UM-SCC-5", "format": "cell-based, human", "protocol": "(§3) The UM-SCC-10B and UM-SCC-5 cell lines were derived from human squamous cell carcinomas of the in head and neck region. […] The sensitivity of the UM-SCC-10B and UM-SCC-5 cell lines and their cDDP-resistant variants to cDDP, TAM and the combination of both agents was tested by colony forming assay. Single-cell suspension were plated into 60 mm tissue culture dishes (Corning) at 300 cells per dish. […] Colonies were fixed with methanol, stained with Giemsa stain for 60 minutes, and counted manually.\n(§4) Median effect analysis was used to assess the interaction between cDDP and TAM using a schedule of one hour exposure to cDDP and continuous exposure to TAM. After seeding the cells into 60 mm tissue culture dishes at 300 cells per dish in fresh medium and allowing 5 hours for them to attach, TAM was added. For the combined treatment, cDDP was added to the dishes 24 hours after seeding the cells. […] After incubation the dishes were washed twice with phosphate-buffered saline and fresh medium containing the appropriate concentration of TAM was added. In synergy experiments, dose-response curves for the single agents were initially generated. The extend of the combined treatment was then analyzed by the isobole method for a combination of cDDP and TAM from the equation"}, "[3]": {"test_system": "UM-SCC-5 head and neck carcinoma cells", "experiment": "Development of cisplatin resistance with or without tamoxifen, UM-SCC-5 (clonogenic assay)", "format": "cell-based, human", "protocol": "as §1, §2"}, "UM-SCC-10B cells": {"test_system": "UM-SCC-10B cells", "experiment": "Colony forming assay, parental UM-SCC-10B", "format": "cell-based, human", "protocol": "as §3, §4"}, "T-289 melanoma cells": {"test_system": "T-289 melanoma cells", "experiment": "Development of DDP resistance with or without TAM, T-289 (colony formation)", "format": "cell-based, human"}, "[4]": {"settings": "human, in vivo", "from_the_text": "(§5) Entry requirements included histologically documented melanoma, measurable disease, signed informed consent, and no anti-tumor therapy during the previous 4 weeks. Patients were required to have normal hematologic and renal function, an ECOG performance status of 0-2 and an estimated survival of at least 3 months. Patients with a previous history of deep venous thrombosis or pulmonary embolism were excluded.\n(§6) Pre-treatment hydration consisted of 1 liter of 5% dextrose/0.45%saline containing 20 mEq of potassium chloride and 2 g magnesium sulfate administered over 4 hours. […] Patients were retreated every 3 weeks. On cycles where TAM was administered, 40 mg p.o. four doses per day were given on day 1 followed by 20 mg p.o. daily thereafter. The initial 7 patients were treated with a combination of lorazepam, metaclopramide, benadryl and dexamethasone to control nausea and vomiting. Subsequent patients received an ondansetron-based regimen."}, "[5]": {"experiment": "Toxicities with DDP or DDP/TAM treatment (clinical trial)", "settings": "in words", "from_the_text": "as §5, §6"}, "[6]": {"experiment": "Steady-state plasma concentration of TAM", "format": "in vivo, human (patients)", "settings": "predicted from in vitro data", "protocol": "The design of the study of Example 1 itself was biased against response and the response rate in other settings would be higher. […] Chronic administration of TAM at 10 mg p.o. twice a day produces steady-state plasma concentrations in the range of 0.29 μM. However, the in vitro data predicts that plasma concentrations of more than 0.5 μM will be necessary in DDP-resistant patients."}, "melanoma [7]": {"test_system": "melanoma", "settings": "203 treated melanoma patients; cited from earlier work"}, "[8]": {"test_system": "cell lines of human origin", "experiment": "Synergy of TAM and DDP: timing and mechanism observations", "format": "cell-based"}, "[9]": {"settings": "number of patients, DDP n=24, TAM/DDP n=20"}, "[10]": {"settings": "read-out: IC50, one hour exposure to cisplatin"}, "[11]": {"settings": "Homo sapiens, read-out: IC50, continuous tamoxifen exposure"}},
  "note": "Read-outs that look alike come from different tables or passages of the source.",
  "data": [
    {"smiles": "N.N.[Cl][Pt][Cl]", "note": "[cisplatin, cis-diamminedichloroplatinum (II)]", "values": [
      {"measurement": "duration of complete response", "setting": "melanoma [1]; DDP alone", "value": "more than 15 months"},
      {"measurement": "duration of partial response (stable off treatment)", "setting": "melanoma [1]; DDP alone, one patient", "value": "≥ 6", "unit": "months"},
      {"measurement": "time to progression of patient with partial response", "setting": "melanoma [1]; DDP alone, the other patient", "value": 4, "unit": "months"},
      {"measurement": "Mixed Response", "setting": "melanoma [1]; number of patients", "value": 0, "unit": "patients"},
      {"measurement": "Progressive Disease", "setting": "melanoma [1]; number of patients", "value": 19, "unit": "patients"},
      {"measurement": "Stable Disease", "setting": "melanoma [1]; number of patients", "value": 2, "unit": "patients"},
      {"measurement": "Complete Response", "setting": "melanoma [1]; [9]", "value": 1, "unit": "patients"},
      {"measurement": "Partial Response", "setting": "melanoma [1]; [9]", "value": 2, "unit": "patients"},
      {"measurement": "Complete Response", "setting": "melanoma [1]; number of patients, DDP n=24, TAM/DDP n=20, listed as DDP", "value": "One"},
      {"measurement": "Progressive Disease", "setting": "melanoma [1]; number of patients, listed as DDP", "value": 17, "unit": "patients"},
      {"measurement": "Complete Response (%)", "setting": "melanoma [1]; percent of patients", "value": 4, "unit": "%"},
      {"measurement": "Partial Response (%)", "setting": "melanoma [1]; percent of patients", "value": 8, "unit": "%"},
      {"measurement": "IC50", "setting": "[2]; UM-SCC-10B selected in cisplatin, one hour cisplatin exposure, read-out: IC50 after the fifteenth selection", "value": "40.1 ± 1.2", "unit": "µM"},
      {"measurement": "IC50", "setting": "UM-SCC-5 cells; [10]", "value": "7.2 ± 1.5", "unit": "µM"},
      {"measurement": "IC50", "setting": "[3]; UM-SCC-5 selected in cisplatin, one hour cisplatin exposure, read-out: IC50 after the fifteenth selection", "value": "20.1 ± 1.2", "unit": "µM"},
      {"measurement": "IC50", "setting": "UM-SCC-10B cells; [10]", "value": "6.5 ± 0.6", "unit": "µM"},
      {"measurement": "time at which DDP resistance became apparent", "setting": "T-289 melanoma cells; T-289 selection", "value": 200, "unit": "days"}
    ]},
    {"smiles": "Cc1nccn1CC1CCc2c(c3ccccc3n2C)C1=O", "note": "(centres unmarked) [ondonsetron, ondansetron]", "values": [
      {"measurement": "nausea and vomiting", "setting": "[4]", "value": "markedly reduced nausea and vomiting"}
    ]},
    {"smiles": "CC/C(=C(\\c1ccccc1)c1ccc(OCCN(C)C)cc1)c1ccccc1", "note": "[tamoxifen]", "values": [
      {"measurement": "nephrotoxicity", "setting": "[5]", "value": "uncommon and unaffected by the administration of TAM"},
      {"measurement": "toxicity on addition of TAM to single agent DDP", "setting": "[5]", "value": "No increased toxicity"},
      {"measurement": "nausea and vomiting", "setting": "[5]; during hospitalization for ondansetron", "value": "did not increase nausea or vomiting"},
      {"measurement": "reduction of slope of regression line by tamoxifen", "setting": "[2]; UM-SCC-10B", "value": "more than 40%"},
      {"measurement": "effect on development of cisplatin resistance", "setting": "[2]; UM-SCC-10B", "value": "delayed the emergence of cisplatin resistance significantly"},
      {"measurement": "effect on development of cisplatin resistance", "setting": "[2]; UM-SCC-10B, listed as TAM", "value": "delay the development of DDP resistance"},
      {"measurement": "plasma concentration predicted necessary in DDP-resistant patients", "setting": "[6]", "value": "more than 0.5 μM"},
      {"measurement": "response rate, single agent TAM therapy", "setting": "melanoma [7]", "value": 6, "unit": "%"},
      {"measurement": "synergy with DDP when TAM is added after DDP", "setting": "[8]; TAM added up to 48 hours after end of 1 hour DDP exposure", "value": "can produce synergy with DDP"},
      {"measurement": "effect of tamoxifen on known mechanisms of cisplatin resistance", "setting": "[8]; drug uptake, glutathione or metallothionein levels, DNA intrastrand adduct formation or repair", "value": "not due to an effect of tamoxifen on the known mechanisms of cisplatin resistance"},
      {"measurement": "IC50", "setting": "UM-SCC-5 cells; [11]", "value": "3.22 ± 0.54", "unit": "µM"},
      {"measurement": "effect on slope for emergence of cisplatin resistance", "setting": "[3]; UM-SCC-5, tamoxifen present during selection, in words", "value": "no effect"},
      {"measurement": "IC50", "setting": "UM-SCC-10B cells; [11]", "value": "3.56 ± 0.41", "unit": "µM"},
      {"measurement": "effect on development of DDP resistance", "setting": "T-289 melanoma cells; T-289, TAM given concurrently, in words", "value": "delay the development of DDP resistance"}
    ]}
  ]
}
